# Where two headings read alike, the source gives them in different places.
# Assays:
# [1] = Accelerated storage stability of syrups in sealed vials at 55° C., analysis by HPLC; format: physicochemical; settings: severe storage conditions of the test (55° C.)
# Experimental: This level can be readily determined by means of an accelerated storage stability test, in which packages of the final product are stored at elevated temperatures above the usual storage temperatures to which the product is expected to be exposed; the present inventors have used temperatures up to 55° C. for this purpose, although such temperatures tend to cause a minor discoloration (darkening) of the syrups, probably due to some carmelization of the contained sucrose. It is expected that most drug degradation reactions will be accelerated by the elevated temperature. At predetermined intervals, some of the packages are opened and analyzed to determine the amount of active ingredients and impurities present in the formulation.
# Twenty five mL portions of the two syrups are placed into 50 mL flint glass vials, then sealed with rubber stoppers and aluminum caps. The sealed vials are stored at 55° C. until their removal and analysis by high performance liquid chromatography.
# Sample A from the preceding example and similarly prepared syrups which also contain 0.1, 0.25, 0.5 or 0.75 mg/mL of disodium EDTA are packaged as in the prior example, and stored and tested similarly.
# [2] = Test of common antioxidant additives incorporated into the syrup
# Experimental: Another test was conducted, wherein common antioxidant additives were incorporated into the syrup. Ideally, the antioxidant will be soluble in the syrup and is safe for use in foods and pharmaceutical preparations.
molecule,measurement,setting,value
"O=C(O)CN(CCN(CC(=O)O)CC(=O)O)CC(=O)O [EDTA, ethylenediaminetetraacetic acid]",inhibition of the degradation of loratadine,[1],significant inhibition
O=C1O[C@H]([C@@H](O)CO)C(O)=C1O [ascorbic acid],color change in the product,[2]; additive at 0.1 and 1 mg/mL in the syrup,unacceptable strong color change
Cc1cc(C(C)(C)C)c(O)c(C(C)(C)C)c1 [butylated hydroxytoluene],solubility in the syrup,[2],not soluble
O=S([O-])O.[Na+] [sodium bisulfite],odor imparted to the syrup,[2]; additive in the syrup,"pungent, disagreeable odor"
tocopherol,solubility in the syrup,[2]; oil-soluble antioxidants,not soluble
